The results in this text go back to ChEMBL document CHEMBL1201862, “PubChem BioAssay data set” (2004).

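Following 48 hours of exposure in 96-well plates, responses at five concentrations were used to interpolate endpoints linearly. The concentration for 50% growth inhibition is given as GI50.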 Calls of active or inactive are those of the source. Cut-off read from the data, not from the text of the source: active = GI50 up to about 1.1 µM and inactive = higher.

Among the test systems are NCI-H226; SR; LOX IMVI; IGROV-1; CCRF-CEM; U-251; A498; SW-620; HL-60; HCT-116; ACHN; SK-MEL-2; Hs-578T; NCI-H460; PC-3; K562; OVCAR-8; KM12; SK-MEL-5; SF-539.
What all share (assay): DTP human tumour cell line panel, 48 h

With `O=C1C(c2c(O)[nH]c3ccccc23)=Nc2ccc(Br)cc21`, the GI50 with NCI-H226 was 18.5 µM (inactive); with SR it was 26.5 µM (inactive); with LOX IMVI, 51.8 µM (inactive); with IGROV-1, 3.37 µM (inactive); in the experiment with CCRF-CEM, 21.2 µM (inactive); in the experiment with U-251, 19.5 µM (inactive). For the same compound, the GI50 in the experiment on A498 was 4.39 µM (inactive); in the experiment on SW-620 it was 39.6 µM (inactive); in the experiment on HL-60, 23.7 µM (inactive); in the experiment with HCT-116, 24.3 µM (inactive); in the experiment on ACHN, 14.5 µM (inactive); with SK-MEL-2, 29.8 µM (inactive). In addition, the GI50 in the experiment on Hs-578T was 19.5 µM (inactive); in the experiment with NCI-H460, 70 µM (inactive); in the experiment with PC-3, 14.8 µM (inactive); in the experiment on K562 it was 27.2 µM (inactive); with OVCAR-8, 15.1 µM (inactive); with KM12, 17.1 µM (inactive). The GI50 in the experiment on SK-MEL-5 is > 100 µM (inactive).
For the compound `Cc1n[nH]c(=S)n1/N=C/c1ccc(-c2ccc(Cl)cc2)o1`, the GI50 with NCI-H226 is > 100 µM (inactive); in the experiment with SR it was > 100 µM (inactive); in the experiment on SF-539, 77.1 µM (inactive); with LOX IMVI it was > 100 µM (inactive); in the experiment with IGROV-1, > 100 µM (inactive); in the experiment on U-251, 31.6 µM (inactive). Further, the GI50 in the experiment on A498 was > 100 µM (inactive); with SW-620 it was > 100 µM (inactive); with HL-60 it was 44.2 µM (inactive); with HCT-116, > 100 µM (inactive); in the experiment on ACHN it was 63.7 µM (inactive); with SK-MEL-2, 29.8 µM (inactive). Also, the GI50 in the experiment on Hs-578T was 37.5 µM (inactive); in the experiment on NCI-H460, > 100 µM (inactive); in the experiment on PC-3 it was > 100 µM (inactive); with K562, > 100 µM (inactive); with OVCAR-8, 93.1 µM (inactive); with KM12, > 100 µM (inactive). The GI50 in the experiment with SK-MEL-5 is > 100 µM (inactive).
Regarding `CNC(=O)Nn1c(SC)nc2ccccc21`, the GI50 in the experiment on NCI-H226, in the experiment with SR, in the experiment on LOX IMVI, with IGROV-1, with CCRF-CEM and in the experiment with U-251 was > 100 µM (inactive) each time. In addition, the GI50 in the experiment with A498, with SW-620, with HL-60, in the experiment on HCT-116, in the experiment on ACHN and in the experiment on SK-MEL-2 was > 100 µM (inactive) each time. The GI50 in the experiment on Hs-578T, in the experiment on NCI-H460, with PC-3, in the experiment with K562, in the experiment with OVCAR-8 and in the experiment on KM12 was > 100 µM (inactive) each time. For the same compound, the GI50 in the experiment with SK-MEL-5 is > 100 µM (inactive).
`Cc1ccc(N2C(=O)C(=O)N(/N=C3\C(=O)Nc4ccccc43)C2=S)cc1`: the GI50 with SR is 38.7 µM (inactive); with SF-539 it was > 100 µM (inactive); with LOX IMVI it was 31.6 µM (inactive); in the experiment on IGROV-1, 95.5 µM (inactive); in the experiment with CCRF-CEM, 7.96 µM (inactive); in the experiment on U-251, 26.3 µM (inactive). Also, the GI50 in the experiment with A498 was > 100 µM (inactive); in the experiment on SW-620 it was 44.2 µM (inactive); in the experiment with HL-60, 0.0998 µM (active); in the experiment on HCT-116, 65.8 µM (inactive); in the experiment with ACHN, 67.6 µM (inactive); in the experiment with SK-MEL-2, 30.3 µM (inactive). Moreover, the GI50 with Hs-578T was > 100 µM (inactive); in the experiment with NCI-H460, 31.5 µM (inactive); in the experiment on PC-3 it was 39.4 µM (inactive); in the experiment on K562, 37.1 µM (inactive); in the experiment on OVCAR-8 it was 59.3 µM (inactive); with KM12, 65.8 µM (inactive). Also, the GI50 with SK-MEL-5 is 41.2 µM (inactive).
As for `CCC(/C=C/c1ccccc1)=N\NC(=S)N/N=C(/C=C/c1ccccc1)CC`, the GI50 in the experiment with NCI-H226 was 32.2 µM (inactive); with SR it was 16.9 µM (inactive); in the experiment on SF-539, 31.5 µM (inactive); in the experiment on LOX IMVI, 21.3 µM (inactive); in the experiment with IGROV-1, 55.8 µM (inactive); in the experiment on CCRF-CEM it was 7.55 µM (inactive). Besides, the GI50 was 18.1 µM (inactive) in the experiment on U-251; 20.8 µM (inactive) in the experiment on A498; > 100 µM (inactive) with SW-620; 19.6 µM (inactive) with HL-60; 19 µM (inactive) in the experiment with HCT-116; 34.2 µM (inactive) in the experiment with ACHN. The GI50 in the experiment with Hs-578T was > 100 µM (inactive); in the experiment with NCI-H460, 13.2 µM (inactive); in the experiment with PC-3, 72.9 µM (inactive); with K562, 19.6 µM (inactive); with OVCAR-8 it was 20.4 µM (inactive); in the experiment with KM12, 31.8 µM (inactive). In addition, in the experiment with SK-MEL-5, the GI50 is 23 µM (inactive).
`COC(=O)C1=C(O)C(C(=O)OC)[C@]2(O)[C@H](C(=O)OC)[C@H]1C[C@@H](c1ccc(Cl)cc1Cl)[C@H]2C(=O)OC` (stereo not given in full): the GI50 was 2.91 µM (inactive) with NCI-H226; 4.06 µM (inactive) in the experiment with SR; 2.84 µM (inactive) in the experiment with SF-539; 5.92 µM (inactive) with LOX IMVI; 6.3 µM (inactive) in the experiment with IGROV-1; 2.72 µM (inactive) with U-251. In addition, the GI50 with A498 was 11.4 µM (inactive); with SW-620, 6.01 µM (inactive); in the experiment with HL-60 it was 2.65 µM (inactive); in the experiment with HCT-116, 6.3 µM (inactive); with ACHN it was 11 µM (inactive); in the experiment with SK-MEL-2, 4.7 µM (inactive). Also, the GI50 in the experiment with Hs-578T is 15.5 µM (inactive); in the experiment with NCI-H460, 5.64 µM (inactive); in the experiment on PC-3 it was 8.41 µM (inactive); in the experiment on K562 it was 3.47 µM (inactive); in the experiment with OVCAR-8, 4.81 µM (inactive); in the experiment with KM12, 12.3 µM (inactive). Moreover, the GI50 in the experiment on SK-MEL-5 is 4.91 µM (inactive).
Consider `O=C1C(Cl)=C(N2CCOCC2)C(=O)c2c(O)ccc(O)c21`, for which the GI50 was 1.83 µM (inactive) in the experiment on NCI-H226; 1.4 µM (inactive) in the experiment on SR; 0.486 µM (active) in the experiment on SF-539; 0.186 µM (active) in the experiment on LOX IMVI; 0.612 µM (active) in the experiment with IGROV-1; 0.473 µM (active) in the experiment with CCRF-CEM. Further, the 50% growth inhibitory concentration (GI50) with U-251 was 0.925 µM (active); in the experiment on A498, 1.63 µM (inactive); with SW-620 it was 0.156 µM (active); with HCT-116, 0.213 µM (active); with ACHN, 0.263 µM (active); with SK-MEL-2, 0.288 µM (active). Further, the GI50 in the experiment on Hs-578T is 0.859 µM (active); with NCI-H460, 0.881 µM (active); with PC-3 it was 0.536 µM (active); with K562 it was 10 µM (inactive); in the experiment with OVCAR-8 it was 0.368 µM (active); with KM12 it was 1.64 µM (inactive). Besides, the GI50 in the experiment on SK-MEL-5 is 0.316 µM (active).
As to `O=C(CCc1cc(O)cc(O)c1)NCCc1cc(O)cc(O)c1`, the GI50 in the experiment with NCI-H226 was > 100 µM (inactive); in the experiment with SR, > 100 µM (inactive); in the experiment with SF-539, > 100 µM (inactive); with LOX IMVI it was > 100 µM (inactive); in the experiment with IGROV-1 it was > 100 µM (inactive); in the experiment on CCRF-CEM it was > 10 µM (inactive). Moreover, the GI50 in the experiment on U-251, in the experiment with A498, in the experiment with SW-620, in the experiment with HCT-116, in the experiment on ACHN and in the experiment on SK-MEL-2 was > 100 µM (inactive) throughout. For the same compound, the GI50 with Hs-578T, in the experiment with NCI-H460, in the experiment on PC-3, in the experiment on K562, with OVCAR-8 and in the experiment with KM12 was > 100 µM (inactive) each time. The GI50 in the experiment on SK-MEL-5 was > 100 µM (inactive).
Consider `O=C(O)CCSC1=NCCN1`, for which the GI50 with NCI-H226 is > 100 µM (inactive); in the experiment on SR, > 100 µM (inactive); in the experiment on LOX IMVI, > 100 µM (inactive); in the experiment with IGROV-1, > 100 µM (inactive); in the experiment with CCRF-CEM, 98.6 µM (inactive); with U-251 it was > 100 µM (inactive). Further, the GI50 in the experiment on A498, in the experiment on SW-620, in the experiment on HL-60, with HCT-116, in the experiment with ACHN and in the experiment with SK-MEL-2 was > 100 µM (inactive) each time. The GI50 in the experiment with Hs-578T, with NCI-H460, with PC-3, with K562, in the experiment on OVCAR-8 and in the experiment with KM12 was > 100 µM (inactive) throughout. Also, the GI50 with SK-MEL-5 is > 100 µM (inactive).
On to `Cc1nc2sccn2c1/C=C1/C(=O)Nc2cccc(Cl)c21`, for which the GI50 with SR was 61.9 µM (inactive); with SF-539 it was > 100 µM (inactive); in the experiment with LOX IMVI, > 100 µM (inactive); in the experiment on IGROV-1, 53.6 µM (inactive); in the experiment on CCRF-CEM, > 100 µM (inactive); in the experiment with U-251, > 100 µM (inactive). For the same compound, the GI50 with A498 is 87.3 µM (inactive); in the experiment with SW-620 it was 41.4 µM (inactive); in the experiment with HL-60 it was 52.7 µM (inactive); in the experiment on HCT-116, 89.9 µM (inactive); in the experiment with ACHN, > 100 µM (inactive); with SK-MEL-2, > 100 µM (inactive). The GI50 was > 100 µM (inactive) in the experiment on Hs-578T; 92 µM (inactive) with NCI-H460; 80.7 µM (inactive) in the experiment on PC-3; 45.3 µM (inactive) in the experiment on K562; > 100 µM (inactive) in the experiment on OVCAR-8; 38.3 µM (inactive) in the experiment with KM12. For the same compound, in the experiment with SK-MEL-5, the GI50 was 45.7 µM (inactive).
